Data reported in US20240002375A1, “2-(INDAZOL-5-YL)-6-(PIPERIDIN-4-YL)-1,7-NAPHTHYRIDINE DERIVATIVES AND RELATED COMPOUNDS AS MODULATORS FOR SPLICING NUCLEIC ACIDS AND FOR THE TRE” (REMIX THERAPEUTICS INC., priority 2020, published 2024).

Columns and labels:
Type in all cases: cell-based
HTT mRNA = experiment: Splicing assay (RT-qPCR) of HTT mRNA alternative junction (AJ) and canonical junction (CJ); settings: A673 or K562 cells, 24 hours; for IC50: decrease in CJ mRNA, read-out: HTT CJ IC50; for AC50: increase in AJ mRNA, read-out: HTT AJ AC50
Description: Compounds described herein were used to modulate RNA transcript abundance in cells. The expression of a target mRNA was measured by detecting the formation of an exon-exon junction in the canonical transcript (CJ). A compound mediated exon-inclusion event was detected by observing an increase in formation of a new junction with an alternative exon (AJ). Real-time qPCR assays were used to detect these splicing switches and interrogate the potency of various compounds towards different target genes. A high-throughput real time quantitative PCR (RT-qPCR) assay was developed to measure these two isoforms of the mRNA (CJ and AJ) for an exemplary gene, HTT, together with a control housekeeping gene, GAPDH or GUSB or PPIA, used for normalization. Briefly, the A673 or K562 cell line was treated with various compounds described herein (e.g., compounds of Formula (I) or (II)). After treatment, the levels of the HTT mRNA targets were determined from each sample of cell lysate by cDNA synthesis followed by qPCR.
Materials: • Cells-to-CT 1-step kit: ThermoFisher A25602, Cells-to-CT lysis reagent: ThermoFisher 4391851C, TagMan™ Fast Virus 1-Step Master Mix: ThermoFisher 4444436 • GAPDH: VIC-PL, ThermoFisher 4326317E (Assay: Hs99999905_ml)—used for K562/suspension cell lines • GUSB: VIC-PL, ThermoFisher 4326320E (Assay: Hs99999908 ml)—used for K562/suspension cell lines • PPIA: VIC-PL, ThermoFisher 4326316E (Assay: Hs99999904 ml)—used for A673/adherent cell lines
The A673 cell line was cultured in DMEM with 10% FBS. Cells were diluted with full growth media and plated in a 96-well plate (15,000 cells in 100 ul media per well). The plate was incubated at 37° C. with 5% CO2 for 24 hours to allow cells to adhere. An 11-point 3-fold serial dilution of the compounds was made in DMSO then diluted in media in an intermediate plate. Compounds were transferred from the intermediate plate to the cell plate with the top dose at a final concentration of 10 uM in the well. Final DMSO concentration was kept at or below 0.25%. The cell plate was returned to the incubator at 37° C. with 5% CO2 for an additional 24 hours.
The K562 cell line was cultured in IMDM with 10% FBS. For K562, cells were diluted with full growth media and plated in either a 96-well plate (50,000 cells in 50 uL media per well) or a 384-well plate (8,000-40,000 cells in 45 uL media per well). An 11-point 3-fold serial dilution of the compounds were made in DMSO then diluted in media in an intermediate plate. Compound was transferred from the intermediate plate to the cell plate with the top dose at a final concentration of 10 uM in the well. Final DMSO concentration was kept at or below 0.25%. Final volume was 100 uL for 96-well plate and 50 uL for 384-well plate. The cell plate was then placed in an incubator at 37° C. with 5% CO2 for 24 hours.
The cells were then gently washed with 50 uL-100 uL cold PBS before proceeding to addition of lysis buffer. 30 uL-50 uL of room temperature lysis buffer with DNAse I (and optionally RNAsin) was added to each well. Cells were shaken/mixed thoroughly at room temperature for 5-10 minutes for lysis to take place and then 3 uL-5 uL of room temperature stop solution was added and wells were shaken/mixed again. After 2-5 minutes, the cell lysate plate was transferred to ice for RT-qPCR reaction setup. The lysates could also be frozen at −80° C. for later use.
In some cases, a direct lysis buffer was used. An appropriate volume of 3X lysis buffer (10 mM Tris, 150 mM NaCl, 1.5%-2.5% Igepal and 0.1-1 U/uL RNAsin, pH 7.4) was directly added to either K562 or A673 cells in media and mixed by pipetting 3 times. The plates were then incubated at room temperature with shaking/rocking for 20-50 minutes to allow for lysis to take place. After this time, the cell lysate plate was transferred to ice to set up for the RT-qPCR reactions. The lysates could also be frozen at −80° C. for later use. […]

HTT CJ mRNA = experiment: Gene panel canonical junction qPCR splicing assay, HTT; settings: Table 4, read-out: HTT IC50 (decrease in CJ mRNA levels)
Description: (§1) Compounds described herein were used to modulate RNA transcript abundance in cells. The expression of a target mRNA was measured by detecting the formation of an exon-exon junction in the canonical transcript (CJ). A compound mediated exon-inclusion event was detected by observing an increase in formation of a new junction with an alternative exon (AJ). Real-time qPCR assays were used to detect these splicing switches and interrogate the potency of various compounds towards different target genes. A high-throughput real time quantitative PCR (RT-qPCR) assay was developed to measure these two isoforms of the mRNA (CJ and AJ) for an exemplary gene, HTT, together with a control housekeeping gene, GAPDH or GUSB or PPIA, used for normalization. Briefly, the A673 or K562 cell line was treated with various compounds described herein (e.g., compounds of Formula (I) or (II)). After treatment, the levels of the HTT mRNA targets were determined from each sample of cell lysate by cDNA synthesis followed by qPCR. The data analysis was performed by first determining the ΔCt vs the housekeeper gene. This ΔCt was then normalized against the DMSO control (ΔΔCt) and converted to RQ (relative quantification) using the 2^(−ΔΔCt) equation. The RQ were then converted to a percentage response by arbitrarily setting an assay window of 3.5 ΔCt for HTT-CJ and an assay window of 9 ΔCt for HTT-AJ. […] The percentage response was then fitted to the 4 parametric logistic equation to evaluate the concentration dependence of compound treatment. The increase in AJ mRNA is reported as AC50 (compound concentration having 50% response in AJ increase) while the decrease in CJ mRNA levels is reported as IC50 (compound concentration having 50% response in CJ decrease). Additional studies were carried out for a larger panel of genes using the protocol provided above. The junction between flanking upstream and downstream exons was used to design canonical junction qPCR assays. At least one of the forward primer, reverse primer or the CY5-labeled 5′ nuclease probe (with 3′ quencher such as ZEN/Iowa Black FQ) was designed to overlap with the exon junction to capture the CJ mRNA transcript. BLAST was used to confirm the specificity of the probeset and parameters such as melting temperature, GC content, amplicon size, and primer dimer formation are considered during their design. Data for the decrease in CJ mRNA levels for three exemplary genes (HTT, SMN2, and Target C) analyzed in this panel are reported as IC50 (compound concentration having 50% response in CJ decrease).

SMN2 CJ mRNA = experiment: Gene panel canonical junction qPCR splicing assay, SMN2; settings: Table 4, read-out: SMN2 IC50 (decrease in CJ mRNA levels)
Description: as §1

Target C CJ mRNA = experiment: Gene panel canonical junction qPCR splicing assay, Target C; settings: Table 4, read-out: Target C IC50 (decrease in CJ mRNA levels)
Description: as §1

| Compound | IC50 (HTT mRNA) | AC50 (HTT mRNA) | IC50 (HTT CJ mRNA) | IC50 (SMN2 CJ mRNA) | IC50 (Target C CJ mRNA) |
| --- | --- | --- | --- | --- | --- |
| Cc1c(O)c(-c2ccc3nc(N4CCC(NC5(C)CC5)C4)ccc3n2)cc2cn(C)nc12 (racemic) [Compound 224, 2,7-dimethyl-5-(6-{3-[(1-methylcyclopropyl)amino]pyrrolidin-1-yl}-1,5-naphthyridin-2-yl) indazol-6-ol] | < 100 nM | < 100 nM | < 100 nM | < 100 nM | < 100 nM |
| C[C@H]1C[C@H](c2ccc3nc(-c4cc5cn(C)nc5cc4O)ccc3n2)CCN1 (relative stereo) [Compound 139, 2-methyl-5-[6-[(2S,4R)-2-methylpiperidin-4-yl]-1,5-naphthyridin-2-yl]indazol-6-ol] | < 100 nM | < 100 nM | < 100 nM | < 100 nM | 100 to 1000 nM |
| C[C@H]1C[C@@H](c2ccc3nc(-c4cc5cn(C)nc5cc4O)ccc3n2)CCN1 (relative stereo) [Compound 140, 2-methyl-5-[6-[(2S,4S)-2-methylpiperidin-4-yl]-1,5-naphthyridin-2-yl]indazol-6-ol] | < 100 nM | 100 to 1000 nM | < 100 nM | < 100 nM | 100 to 1000 nM |
| Cc1nc2cc(O)c(-c3ccc4nc(N5CC[C@H](NC6CC6)C5)ccc4n3)cc2o1 (single isomer, unassigned) [Compound 211, 6-{6-[3-(cyclopropylamino)pyrrolidin-1-yl]-1,5-naphthyridin-2-yl}-2-methyl-1,3-benzoxazol-5-ol] | < 100 nM | < 100 nM | < 100 nM | < 100 nM | 100 to 1000 nM |
| Cc1nc2cc(O)c(-c3ccc4nc(N5CC[C@@H](NC6CC6)C5)ccc4n3)cc2o1 (single isomer, unassigned) [Compound 212, 6-{6-[3-(cyclopropylamino)pyrrolidin-1-yl]-1,5-naphthyridin-2-yl}-2-methyl-1,3-benzoxazol-5-ol] | < 100 nM | < 100 nM | < 100 nM | < 100 nM | 100 to 1000 nM |
| Cc1nc2c(C)c(O)c(-c3ccc4nc(N5CCC(NC(C)(C)C)C5)ccc4n3)cc2o1 (single isomer, unassigned) [Compound 214, 6-{6-[3-(tert-butylamino)pyrrolidin-1-yl]-1,5-naphthyridin-2-yl}-2,4-dimethyl-1,3-benzoxazol-5-ol] | < 100 nM | < 100 nM | < 100 nM | < 100 nM | < 100 nM |
| Cc1nc2c(C)c(O)c(-c3ccc4nc(N5CC[C@@H](NC(C)(C)C)C5)ccc4n3)cc2o1 (single isomer, unassigned) [Compound 215, 6-{6-[3-(tert-butylamino)pyrrolidin-1-yl]-1,5-naphthyridin-2-yl}-2,4-dimethyl-1,3-benzoxazol-5-ol] | < 100 nM | < 100 nM | < 100 nM | < 100 nM | < 100 nM |
| Cc1nc2c(C)c(O)c(-c3ccc4nc(N5CCC(NC6CC6)C5)ccc4n3)cc2o1 (single isomer, unassigned) [Compound 216, 6-{6-[3-(cyclopropylamino)pyrrolidin-1-yl]-1,5-naphthyridin-2-yl}-2,4-dimethyl-1,3-benzoxazol-5-ol] | < 100 nM | < 100 nM | < 100 nM | < 100 nM | < 100 nM |
| Cc1nc2c(C)c(O)c(-c3ccc4nc(N5CCC(NC6CC6)C5)ccc4n3)cc2o1 (single isomer, unassigned) [Compound 217, 6-{6-[3-(cyclopropylamino)pyrrolidin-1-yl]-1,5-naphthyridin-2-yl}-2,4-dimethyl-1,3-benzoxazol-5-ol] | < 100 nM | < 100 nM | < 100 nM | < 100 nM | < 100 nM |
| Cn1cc2cc(-c3ccc4nc(N5CC[C@@H](NC6(C)CC6)C5)ccc4n3)c(O)cc2n1 (single isomer, unassigned) [Compound 220] | < 100 nM | < 100 nM | < 100 nM | < 100 nM | < 100 nM |
| Cn1cc2cc(-c3ccc4nc(N5CC[C@H](NC6(C)CC6)C5)ccc4n3)c(O)cc2n1 (single isomer, unassigned) [Compound 221, 2-methyl-5-{6-[(35)-3-[(1-methylcyclopropyl)amino]pyrrolidin-1-yl]-1,5-naphthyridin-2-yl}indazol-6-ol] | < 100 nM | < 100 nM | < 100 nM | < 100 nM | < 100 nM |
| Cn1cc2cc(-c3ccc4nc(N5CC[C@H](NC6(C)CC6)C5)ccc4n3)c(O)c(F)c2n1 (single isomer, unassigned) [Compound 222, 7-fluoro-2-methyl-5-{6-[(3 S)-3-[(1-methylcyclopropyl)amino]pyrrolidin-1-yl]-1,5-naphthyridin-2-yl}indazol-6-ol] | < 100 nM | < 100 nM | < 100 nM | < 100 nM | < 100 nM |
| CN1CCC12CCN(c1ccc3nc(-c4cc5cn(C)nc5cc4O)ccc3n1)C2 (centres unmarked) [Compound 181, 2-methyl-5-(6-{1-methyl-1,6-diazaspiro[3.4]octan-6-yl}-1,5-naphthyridin-2-yl) indazol-6-ol] | 100 to 1000 nM |  |  |  |  |
| Cn1cc2cc(-c3ccc4nc(N5CCC(NC(C)(C)C)C5)ccc4n3)c(F)cc2n1 (centres unmarked) [Compound 183] | > 10000 nM |  |  |  |  |
